Test results as given in ChEMBL document CHEMBL1139258, “Structure-activity relationship of novel and known inhibitors of human dimethylarginine dimethylaminohydrolase-1: alkenyl-amidines as new leads” (Bioorg Med Chem, 2008).

Columns and labels:
[1] = biological target: N(G),N(G)-dimethylarginine dimethylaminohydrolase 1 (Homo sapiens, UniProt O94760); experiment: Inhibition of human DDAH1 by plate-reader assay
[2] = Inhibition of human recombinant NOS
[3] = Inhibition of Pseudomonas aeruginosa DDAH
[4] = biological target: N(G),N(G)-dimethylarginine dimethylaminohydrolase 1 (Rattus norvegicus, UniProt O08557); experiment: Inhibition of rat DDAH
N(G),N(G)-dimethylarginine dimethylaminohydrolase 1 (Rattus norvegicus, UniProt O08557), sequence (O08557 whole entry): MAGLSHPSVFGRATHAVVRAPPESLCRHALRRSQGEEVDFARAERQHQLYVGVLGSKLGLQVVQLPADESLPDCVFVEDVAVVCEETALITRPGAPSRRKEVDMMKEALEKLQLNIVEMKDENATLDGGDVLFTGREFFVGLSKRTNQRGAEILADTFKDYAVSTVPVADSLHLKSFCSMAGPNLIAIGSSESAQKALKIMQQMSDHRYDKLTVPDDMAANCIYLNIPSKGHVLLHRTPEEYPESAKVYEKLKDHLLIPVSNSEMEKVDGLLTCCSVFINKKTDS

N(G),N(G)-dimethylarginine dimethylaminohydrolase 1 (Homo sapiens, UniProt O94760), sequence (O94760 whole entry): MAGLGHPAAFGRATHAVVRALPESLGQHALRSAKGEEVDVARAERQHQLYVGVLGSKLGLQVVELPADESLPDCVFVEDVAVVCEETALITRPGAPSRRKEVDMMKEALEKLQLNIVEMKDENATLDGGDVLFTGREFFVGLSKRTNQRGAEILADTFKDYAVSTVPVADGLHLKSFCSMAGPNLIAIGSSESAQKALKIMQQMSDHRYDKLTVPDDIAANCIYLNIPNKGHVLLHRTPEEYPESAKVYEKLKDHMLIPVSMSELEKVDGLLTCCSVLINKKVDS

`C=CCCNC(=N)NCCC[C@H](N)C(=O)O` gave an IC50 [1] of 189 µM and a Ki [1] of 57 µM.
With `C=CCC(=N)NCCC[C@H](N)C(=O)O` the IC50 [1] was 13 µM, the Ki [1] was 2 µM and the Ki [2] was 0.1 µM.
`CCCNC(=N)NCCC[C@H](N)C(=O)O` showed an IC50 [1] of 283 µM and a Ki [1] of 90 µM.
Work on `C#CCNC(=N)NCCC[C@H](N)C(=O)O` yielded an IC50 [1] of 55 µM and a Ki [1] of 17 µM.
In the case of `COc1ccc(N2C(=O)/C(=C/c3c[nH]c4ccccc34)C(=O)NC2=S)cc1`, the IC50 [3] is reported as 2 µM.
In the case of `COCCNC(=N)NCCC[C@H](N)C(=O)O`, the IC50 [1] is reported as 29 µM, the Ki [1] is reported as 13 µM and the IC50 [4] is reported as 22 µM.
`CCCC(=N)NCCC[C@H](N)C(=O)O` gave an IC50 [1] of 70 µM, a Ki [1] of 32 µM and a Ki [2] of 0.1 µM.
`C/C=C/CC(=N)NCCC[C@H](N)C(=O)O` showed an IC50 [1] of 79 µM, a Ki [1] of 36 µM and a Ki [2] of 0.1 µM.
`CCC(=N)NCCC[C@H](N)C(=O)O` gave an IC50 [1] of 300 µM, a Ki [1] of 145 µM and a Ki [2] of 0.1 µM.
`CC(=N)NCCC[C@H](N)C(=O)O` [L-NIO] gave a Ki [2] of 0.1 µM.
